Tested on: Trypanosoma cruzi parasites
Test: Induction of cell death mechanisms (ATP, SYTOX Green, JC-1, Hoechst/PI, CellROX)
Format: cell-based
Details: parasites incubated 24 h with the IC90 of the compounds
Experimental: To observe these events, parasites were incubated for 24 h with the IC90 of the compounds. After that, the plate was centrifuged at 3000 rpm at 4 °C for 10 min to remove the supernatant. The pellet was then resuspended in buffer and the different kits were added following the manufacturer’s instructions. CellTiter-Glo® Luminescent Cell Viability Assay was used to determine the ATP levels of the parasitic cells. This kit contains luciferin upon contact with cell metabolism, oxidises to oxyluciferin and emitting luminescence. The procedure was as follows: after 24 h of incubation and centrifugation, the pellet was resuspended in 25 μL of buffer and mixed with 25 μL of CellTiter-Glo® in the dark, shaking for 2 min. Then, after 15 min of incubation at room temperature, the luminescence was read in the EnSpire Multimode Plate Reader® [20]. In PCD, there is an alteration in the permeability of the plasma membrane, but the cell structure is maintained. The SYTOX™ Green Stain (Thermo Fischer Scientific, Madrid, Spain) only penetrates cells with increased plasma permeability. Once inside the cell, it will bind to the DNA and emit green fluorescence. After incubation and centrifugation, the pellet was resuspended in 50 μL of buffer and the reagent was added at a concentration of 1 μM. […]

N=C1C=CC(=O)N1c1ccccc1 [B]
type of cell death produced: late phase of this type of cell death
